# US12201643B2, “Mechanochemical dynamic for focal cancer treatment” (THE BOARD OF TRUSTEES OF THE UNIVERSITY OF ILLINOIS, priority 2021, dated 2025)
# How the values were obtained:
# [1] = Arrhenius equation; cited from earlier work
# [2] = test system: B16F10 mouse skin melanoma cells; format: cell-based
# From the text: (§1) B16F10 mouse skin melanoma cells were maintained in DMEM (Gibco) supplemented with 10% fetal bovine serum (FBS, Corning), penicillin and streptomycin (Thermo Fisher). B16F10 cells were a generous gift from Dr. Edward Roy at the University of Illinois at Urbana-Champaign. E0771 mouse breast cancer cells (CH3 BioSystems) were maintained in RPMI-1640 (Gibco) supplemented with 10% FBS (Corning), penicillin and streptomycin (Thermo Fisher). For free-radical challenge experiments, 0.05% trypsin dissociated cells were counted and 1×10^4 cells per well were seeded in cell culture-treated 6 well plates (Thermo Fisher) 24 hours before the start of the experiment. […] Cells were then incubated up to 72 hours without media change and counted every 24 hours. […] Staining solution was then replaced by PBS and the cells were imaged on an Olympus inverted fluorescence microscope with 4× objective and FITC filter set. […] Live cells positively stained by Calcein-AM were counted using FIJI (NIH) and averaged over 4 counting fields per well at each time point (FIG. 12). For each image, only the green channel was analyzed. […] Using “Analyze Particles,” the distinct white areas from size 20 (to exclude small artifacts and debris) to size infinity were counted. Cell counts were then compiled and analyzed in Microsoft Excel. […]
# [3] = test system: E0771 mouse breast cancer cells; format: cell-based
# From the text: as §1
SMILES,activation energy Ea of azo group decomposition [1],pre-exponential factor A of azo group decomposition [1],lethal dosage (positive control) [2],lethal dosage (positive control) [3]
"CC(C#N)(CCC(=O)O)N=NC(C)(C#N)CCC(=O)O (stereo not shown) [ACVA, 4,4′-azobis (4-cyanovaleric acid)]",31.76 kcal/mol,6.21e+15 s⁻¹,–,–
"OO [H2O2, hydrogen peroxide]",–,–,~50 µM,~30 µM
